Molecular target: GlmU (glucosamine-1-phosphate acetyltransferase / N-acetylglucosamine-1-phosphate uridyltransferase) (Mycobacterium tuberculosis, UniProt P9WMN3)
Assay: DTNB colorimetric acetyltransferase assay, with Lineweaver-Burk kinetics
Assay type: biochemical

Chain of GlmU (glucosamine-1-phosphate acetyltransferase / N-acetylglucosamine-1-phosphate uridyltransferase) (P9WMN3 2-495 limits assumed): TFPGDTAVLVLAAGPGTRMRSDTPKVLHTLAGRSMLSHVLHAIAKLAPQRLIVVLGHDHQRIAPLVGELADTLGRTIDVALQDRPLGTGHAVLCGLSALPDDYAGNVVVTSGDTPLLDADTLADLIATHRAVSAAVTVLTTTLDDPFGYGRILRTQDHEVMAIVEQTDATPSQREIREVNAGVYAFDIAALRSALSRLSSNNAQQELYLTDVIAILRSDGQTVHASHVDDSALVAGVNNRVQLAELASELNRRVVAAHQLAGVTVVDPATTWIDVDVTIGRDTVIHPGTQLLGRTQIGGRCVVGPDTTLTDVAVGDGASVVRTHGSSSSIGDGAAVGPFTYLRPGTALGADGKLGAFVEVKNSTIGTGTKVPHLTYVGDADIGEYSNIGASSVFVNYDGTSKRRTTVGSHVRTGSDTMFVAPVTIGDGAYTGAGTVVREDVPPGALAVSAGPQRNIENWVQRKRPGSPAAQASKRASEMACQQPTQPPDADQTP

## O=c1oc2ccccc2c(O)c1Cc1c(O)c2ccccc2oc1=O [compound 22, 3,3′-methylene-bis-4-hydroxycoumarin]
  IC50: 13.7 µM
